# Measurements as given in patent publication EP2440195B1, “USE OF ALKYLGLYCEROLS FOR PREPARING DRUGS” (Université de Rennes I, priority 2009, dated 2010).
# Tests used:
# [1] = tested on: cellules du carcinome pulmonaire de Lewis; assay: Survival and tumour growth in mice grafted with Lewis lung carcinoma, five diets (alkylglycerol 18:1 and/or DFMO, normal or polyamine-deficient diet); assay type: in vivo, souris C57BL/6
# Excerpt: Cette figure représente les variations de volume de tumeurs (en mm^3, indiqués en ordonnées) en fonction du nombre de jours (indiqués en abscisses) écoulés après la greffe de ladite tumeur chez des souris C57BL/6. Les souris sont greffées avec une tumeur solide de cellules du carcinome pulmonaire de Lewis.
# (§1) Cette figure représente le pourcentage de survie (en ordonnées) de souris C57BL/6, en fonction du nombre de jours (en abscisses) écoulés après la greffe d'une tumeur solide de cellules du carcinome pulmonaire de Lewis. La représentation utilisée est sous forme de graphique de Kaplan-Meier, le test statistique Log-Rank est utilisé pour la comparaison de la survie (fiabilité p < 0,0001).
# (§2) Des souris femelles C57BL/6, âgées de 8 semaines et pesant 20g (élevage Janvier, Le Genest St Isle, France) sont acclimatées 1 semaine avant le début de l'étude. La manipulation des animaux est réalisée en accord avec les directives éthiques pour l'expérimentation et selon les recommandations de l'Association Européenne de Recherche Biomédicale.
# (§3) Les cellules de carcinome pulmonaire de Lewis (3LL) ont été obtenues auprès de l'ECACC (European collection of cell cultures) et greffées par injection intramusculaire dans les pattes postérieures de souris femelles C57BL/6 selon la méthode décrite précédemment (Hergueux J. et al., Exp. Cell Biol., 1983, 51(4), 181-191) pour produire des cellules tumorales. Après 20 jours, les cellules tumorales sont collectées et dispersées dans du PBS, comptées et diluées pour atteindre 1 ×10^6 cellules / 100 µL, avant d'être greffées dans les souris.
# Le modèle animal (souris C57BL/5) et le modèle tumoral (carcinome de Lewis) sont décrits précédemment. Les souris sont greffées avec […] tumorales, par injection intramusculaire. […]
# [2] = tested on: cellules du carcinome pulmonaire de Lewis; assay: Survival study by diet (PDD or PCD) and alkylglycerol 18:1 or olive oil, Lewis lung carcinoma graft; assay type: in vivo, souris C57BL/6; conditions: for différence dans la valeur de survie médiane: Log-Rank; for valeur médiane de survie: 25 mice per group
# Excerpt: as §1, with “souris,” for “souris C57BL/6,”, “Lewis. Les souris sont réparties en 2 groupes de 25 individus. Les deux groupes sont alimentés avec des régimes alimentaires différents. Les valeurs médianes de survie sont observées.” for “Lewis.”, “survie.” for “survie (fiabilité p < 0,0001).”
# as §2, §3
# Au premier jour de l'expérience, 0,1 ×10^6 cellules tumorales sont greffées par injection intramusculaire, à chaque souris. Les souris greffées sont réparties aléatoirement dans les cages par groupe de 25 individus.
# Quatre groupes sont constitués, chacun comprenant 25 souris greffées avec des cellules tumorales. Les souris sont réparties dans 8 cages avec 12 à 13 individus par cage. Chaque groupe de souris comprend les individus de deux cages. Chaque groupe de souris est alimenté avec un régime alimentaire différent. La consommation d'aliments est suivie deux fois par semaine, et le nombre de décès deux fois par jour.
# Les quatre types de régime alimentaire sont : • régime 1, aliment synthétique appauvri en polyamines (PDD) et enrichi en huile d'olive (20 g / kg d'aliment), • régime 2, aliment synthétique appauvri en polyamines (PDD) et enrichi en alkylglycérol 18 :1 (25 mg par jour et par souris), • régime 3, aliment synthétique contenant des polyamines (PCD), enrichi en huile d'olive (20 g / kg d'aliment), • régime 4, aliment synthétique contenant des polyamines (PCD), enrichi en alkylglycérol 18 :1 (25 mg par jour et par souris).
# carcinome de Lewis = assay: Antitumour agent Example 2: chemotherapy with PCD/PDD diets, DFMO and alkylglycerol C18:1, Lewis carcinoma graft; assay type: in vivo, souris C57BL/5
# Protocol: Le modèle animal (souris C57BL/5) et le modèle tumoral (carcinome de Lewis) sont décrits précédemment. Les souris sont greffées avec 0,1 ×10^6 cellules tumorales, par injection intramusculaire.
# Quatres ensembles d'animaux sont constitués : A, B, C et D. • L'ensemble A est traité avec une monochimiothérapie a forte dose (cyclophosphamide, 90 mg / kg / semaine). • L'ensemble B est traité avec une monochimiothérapie a faible dose (cyclophosphamide, 20 mg / kg / semaine). • L'ensemble C est traité avec une polychimiothérapie combinant trois agents antitumoraux (methotrexate, cyclophosphamide, vindesine). Le premier jour de l'expérience l'ensemble C est traité avec le methotrexate (1,7 mg / kg). Le second jour de l'expérience l'ensemble C est traité avec le cyclophosphamide (20 mg / kg). Le troisième jour de l'expérience l'ensemble C est traité avec la vindesine (0,25 mg/kg). • L'ensemble D est traité avec une solution saline (NaCl, 0,14 M), il s'agit d'un groupe témoin.
# Pour chacun des 4 ensembles, les souris sont réparties en 8 groupes (soit 32 groupes au total) en fonction de leurs alimentations : • Le groupe 1a : aliment synthétique contenant des polyamines (PCD), • le groupe 1b : aliment synthétique contenant des polyamines (PCD), et avec une eau contenant du DFMO, • le groupe 1c : aliment synthétique contenant des polyamines (PCD), enrichi en alkylglycérol, • le groupe 1d : aliment synthétique contenant des polyamines (PCD), enrichi en alkylglycérol, et avec une eau contenant du DFMO, • le groupe 2a : aliment synthétique appauvri en polyamines (PDD), • le groupe 2b : aliment synthétique appauvri en polyamines (PDD), et avec une eau contenant du DFMO, • le groupe 2c : aliment synthétique appauvri en polyamines (PDD), enrichi en alkylglycérol, • le groupe 2d : aliment synthétique appauvri en polyamines (PDD), enrichi en alkylglycérol, et avec une eau contenant du DFMO,
# L'alkylglycérol est le C 18 :1 (alcool sélachylique) et est mélangé à l'alimentation des souris (25 mg par jour et par souris). Le DFMO est mélangé à l'eau de boisson des souris (30 g/L). […]
# [3] = tested on: néo vascularisation induite par le Matrigel; assay: Matrigel plug angiogenesis test (haemoglobin content of the gel, VEGF-induced); assay type: in vivo, souris C57BL/5; conditions: PDD
# Protocol: Cette figure représente le pourcentage de concentration en hémoglobine dans du Matrigel (BD Biosciences) (en ordonnées), 10 jours après injection dudit Matrigel (500µL) à des souris.
# La colonne du centre représente les souris témoins ayant été traitées avec du VEGF. Ces souris ont été greffées avec du Matrigel contenant du VEGF (50 ng/mL). Le pourcentage de concentration en hémoglobine est fixé arbitrairement à 100% et sert de référence pour quantifier les pourcentages des deux autres groupes.
# La néo vascularisation induite par le Matrigel est dosée suivant une modification de la méthode de Kimura et al. (Cancer Sci. 2004, 95(9), 758-764). En résumé, tous les animaux ont été traités par injection sous-cutanée de Matrigel (500µL) contenant 32 unités/mL d'héparine et éventuellement 50 ng/mL de VEGF (Vascular Endothelial Growth Factor).
# Le modèle animal (souris C57BL/5) et le Matrigel sont décrits précédemment.
# Le Matrigel est injecté en sous-cutané (500 µL par injection) à trois groupes de 6 souris : • Groupe 1 : Matrigel sans VEGF, régime alimentaire appauvri en polyamines (PDD). • Groupe 2 : Matrigel avec VEGF, régime alimentaire appauvri en polyamines (PDD). • Groupe 3 : Matrigel avec VEGF, régime alimentaire appauvri en polyamines (PDD), enrichi en alkylglycérol 18 :1 (25 mg par jour et par souris)
# Dix jours après injection les souris sont euthanasiées et le Matrigel est prélevé, pesé, photographié. Le Matrigel est ensuite dissocié mécaniquement dans du PBS, homogénéisé puis est mis dans une solution de Drabkin's pour le dosage de l'hémoglobine. Les solutions sont déposées dans des puits d'une plaque 96 puits contenant une solution de Drabkin's et lecture dans un lecteur de plaque à 540 nm.
# La concentration en hémoglobine observe dans le Matrigel du groupe 2 est fixé arbitrairement à 100% et sert de référence lors des comparaisons avec les résultats obtenus avec les groupes 1 et 3 (Figure 8).
# [4] = régime appauvri en polyamines (PDD), alkylglycérol 18 :1 25 mg / souris / jour and/or DFMO 30 g / L in drinking water, DFMO alone given with huile d'olive
# [5] = cyclophosphamide à faible dose (20 mg / kg / semaine), animaux PDD + DFMO (30 g/L)
Structure (SMILES),"valeur médiane de survie [1, 4]","différence dans la valeur de survie médiane ([2]; C18 :1 (PCD, régime 4) vs huile d'olive (PCD, régime 3), Figure 4)","différence dans la valeur de survie médiane ([2]; C18 :1 (PDD, régime 2) vs C18 :1 (PCD, régime 4), Figure 7)","différence dans la valeur de survie médiane ([2]; C18 :1 (PDD, régime 2) vs huile d'olive (PCD, régime 3), Figure 5)","différence dans la valeur de survie médiane ([2]; C18 :1 (PDD, régime 2) vs huile d'olive (PDD, régime 1), Figure 3)",influence sur la durée médiane de survie ([2]; overall conclusion of the four-diet survival study),"valeur médiane de survie ([2]; régime appauvri en polyamines (PDD, 10 µg / kg d'aliment), alkylglycérol 18 :1 25 mg / souris / jour or huile d'olive)","valeur médiane de survie ([2]; régime contenant des polyamines (PCD, 128 mg / kg d'aliment), alkylglycérol 18 :1 25 mg / souris / jour)",effect of C18 :1 intake on the benefit of chemotherapy (carcinome de Lewis; C18 :1 25 mg par jour et par souris added to chemotherapy + PDD + DFMO),effet anti angiogénique ([3]; Matrigel with VEGF),"réduction de l'angiogénèse ([3]; Matrigel with VEGF, C18 :1 25 mg par jour et par souris, vs VEGF group)","concentration en hémoglobine dans le Matrigel ([3]; relative to VEGF group (50 ng/mL) fixed at 100%, 10 days after injection, alkylglycérol 18 :1 25 mg par jour et par souris, 6 mice)","valeur médiane de survie ([1]; régime contenant un taux normal de polyamines (PCD), alkylglycérol 18 :1 25 mg / souris / jour, days after tumour graft)",dissémination métastatique pulmonaire (carcinome de Lewis; [5]),progression de la greffe tumorale (carcinome de Lewis; [5])
"NCCCC(N)(C(=O)O)C(F)F (racemic) [DFMO, D,L-2-(difluorométhyl)ornithine, reference compound]",35 jours,,,,,,,,,,,,,,
"CCCCCCCC/C=C\CCCCCCCCOCC(O)CO (stereo not shown) [alkylglycérol 18 :1, alcool sélachylique]",30 jours,Aucune différence significative,Aucune différence significative,Aucune différence significative,Aucune différence significative,n'a pas d'influence significative,26 jours,26 jours,amplifie les effets bénéfiques de la chimiothérapie,observé,~40%,"58,56%",31 jours,,
O=P1(N(CCCl)CCCl)NCCCO1 (stereo not shown) [cyclophosphamide],,,,,,,,,,,,,,efficace,efficace
